Target: T1, hSTING (Homo sapiens, UniProt Q86WV6, G230A/H232R/R293Q/R71H)
T1 construct: host or cells: THP1-Dual KO-IFNAR2 cells
Assay: STING reporter assay (luciferase) in THP1-Dual KO-IFNAR2 cells stimulated with 2'3'cGAMP
Type: cell-based
Details: 2'3'cGAMP 15 μM, 24 h, luciferase reporter activity
Procedure, shortened: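 THP1-Dual KO-IFNAR2 cells (2×10E6 cells/mL) exposed to compounds at 0.0017-100 μM final, then stimulated with 2′3′cGAMP (15 μM final) delivered by Lipofectamine 2000 transfection. After 24 h at 37° C, secreted luciferase in supernatant read by QUANTI-Luc luminescence; EC50 calculated.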

T1 sequence (Q86WV6 whole entry R71H/G230A/H232R/R293Q): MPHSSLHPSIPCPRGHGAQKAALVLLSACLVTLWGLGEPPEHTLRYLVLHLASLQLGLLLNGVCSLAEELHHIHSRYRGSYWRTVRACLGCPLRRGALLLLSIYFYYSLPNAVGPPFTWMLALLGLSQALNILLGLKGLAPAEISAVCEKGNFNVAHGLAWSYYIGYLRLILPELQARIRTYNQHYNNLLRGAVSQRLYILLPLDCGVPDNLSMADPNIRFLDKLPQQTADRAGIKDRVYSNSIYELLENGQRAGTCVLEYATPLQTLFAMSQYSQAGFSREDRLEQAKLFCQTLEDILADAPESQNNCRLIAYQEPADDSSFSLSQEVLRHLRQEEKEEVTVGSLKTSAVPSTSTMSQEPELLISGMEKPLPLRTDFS

SMILES: O=C(Nc1cnc(C2CC(F)(F)C2)c(Cl)c1)Nc1c[nH]c2ccccc12 [Compound 283, 1-(5-chloro-6-(3,3-difluorocyclobutyl)pyridin-3-yl)-3-(1H-indol-3-yl)urea]
- EC50: 40 to 200 nM

SMILES: O=C(Nc1cnc(C2CCC(F)(F)CC2)c(CO)c1)Nc1c[nH]c2ccc(Cl)cc12 [Compound 136, 1-(5-chloro-1H-indol-3-yl)-3-(6-(4,4-difluorocyclohexyl)-5-(hydroxymethyl)pyridin-3-yl)urea]
- EC50: 200 to 1000 nM

SMILES: O=C(Nc1ccc(N2CCN(CC(F)(F)F)CC2)nc1)Nc1c[nH]c2ccccc12 [Compound 280, 1-(1H-indol-3-yl)-3-(6-(4-(2,2,2-trifluoroethyl)piperazin-1-yl)pyridin-3-yl)urea]
- EC50: 200 to 1000 nM

SMILES: C[C@H]1CN(c2ncc(NC(=O)Nc3c[nH]c4ccc(Cl)cc34)cc2Cl)CCN1 [Compound 296, (S)-1-(5-chloro-1H-indol-3-yl)-3-(5-chloro-6-(3-methylpiperazin-1-yl)pyridin-3-yl)urea]
- EC50: 1000 to 5000 nM

SMILES: CCc1cc(NC(=O)Nc2c[nH]c3ccc(Cl)cc23)cnc1N1CCC(F)(F)CC1 [Compound 131, 1-(5-chloro-1H-indol-3-yl)-3-(6-(4,4-difluoropiperidin-1-yl)-5-ethylpyridin-3-yl)urea]
- EC50: 40 to 200 nM

SMILES: O=C(Nc1cnc(N2CC3(C2)CC(F)(F)C3)c(Cl)c1)Nc1c[nH]c2c(Br)cc(Cl)cc12 [Compound 244, 1-(7-bromo-5-chloro-1H-indol-3-yl)-3-(5-chloro-6-(6,6-difluoro-2-azaspiro[3.3]heptan-2-yl)pyridin-3-yl)urea]
- EC50: 1000 to 5000 nM

SMILES: COC(=O)c1cc(NC(=O)Nc2c[nH]c3ccccc23)cnc1C1CCC(F)(F)CC1 [Compound 265, methyl 5-(3-(1H-indol-3-yl)ureido)-2-(4,4-difluorocyclohexyl)nicotinate]
- EC50: 40 to 200 nM

SMILES: O=C(Nc1ccc(N2CCN(CCC(F)(F)F)CC2)nc1)Nc1c[nH]c2ccc(F)cc12 [Compound 252, 1-(5-fluoro-1H-indol-3-yl)-3-(6-(4-(3,3,3-trifluoropropyl)piperazin-1-yl)pyridin-3-yl)urea]
- EC50: 200 to 1000 nM

SMILES: O=C(Nc1cnc(N2CCC3(CCCCO3)CC2)c(F)c1)Nc1c[nH]c2cc(F)ccc12 [Compound 145, 1-(6-fluoro-1H-indol-3-yl)-3-(5-fluoro-6-(1-oxa-9-azaspiro[5.5]undecan-9-yl)pyridin-3-yl)urea]
- EC50: 200 to 1000 nM

SMILES: O=C(Nc1cc(Cl)c(C2CCC(F)(F)CC2)cn1)Nc1c[nH]c2ccc(F)cc12 [Compound 287, 1-(4-chloro-5-(4,4-difluorocyclohexyl)pyridin-2-yl)-3-(5-fluoro-1H-indol-3-yl)urea]
- EC50: 40 to 200 nM

SMILES: CCc1cc(NC(=O)Nc2c[nH]c3ccc(F)cc23)cnc1N1CCC(F)(F)CC1 [Compound 132, 1-(6-(4,4-difluoropiperidin-1-yl)-5-ethylpyridin-3-yl)-3-(5-fluoro-1H-indol-3-yl)urea]
- EC50: 40 to 200 nM

SMILES: O=C(Nc1ccc(C2CN(CC(F)(F)F)C2)c(Cl)c1)Nc1c[nH]c2ccc(Cl)cc12 [Compound 218, 1-(5-chloro-1H-indol-3-yl)-3-(3-chloro-4-(1-(2,2,2-trifluoroethyl)azetidin-3-yl)phenyl)urea]
- EC50: 40 to 200 nM

SMILES: O=C(Nc1cnc(C2CCN(CC(F)(F)F)CC2)c(Cl)c1)Nc1c[nH]c2ccccc12 [Compound 279, 1-(5-chloro-6-(1-(2,2,2-trifluoroethyl)piperidin-4-yl)pyridin-3-yl)-3-(1H-indol-3-yl)urea]
- EC50: 40 to 200 nM

SMILES: O=C(Nc1cnc(N2CCN(CC(F)(F)F)CC2)c(Cl)c1)Nc1c[nH]c2cc(F)c(F)cc12 [Compound 269, 1-(5-chloro-6-(4-(2,2,2-trifluoroethyl)piperazin-1-yl)pyridin-3-yl)-3-(5,6-difluoro-1H-indol-3-yl)urea]
- EC50: 40 to 200 nM

SMILES: O=C(Nc1cn(C2CCC(F)(F)CC2)cn1)Nc1c[nH]c2ccc(F)cc12 [Compound 210, 1-[1-(4,4-difluorocyclohexyl)imidazol-4-yl]-3-(5-fluoro-1H-indol-3-yl)urea]
- EC50: 1000 to 5000 nM

SMILES: O=C(Nc1ccc(C2CCC(F)(F)CC2)nc1)Nc1c[nH]c2ccc(Cl)cc12 [Compound 130, 1-(5-chloro-1H-indol-3-yl)-3-(6-(4,4-difluorocyclohexyl)pyridin-3-yl)urea]
- EC50: 40 to 200 nM

SMILES: O=C(Nc1cnc(C2CCN(CCC(F)(F)F)C2)c(Cl)c1)Nc1c[nH]c2ccc(Cl)cc12 (centres unmarked) [Compound 242, 1-(5-chloro-1H-indol-3-yl)-3-(5-chloro-6-(1-(3,3,3-trifluoropropyl)pyrrolidin-3-yl)pyridin-3-yl)urea]
- EC50: 40 to 200 nM

SMILES: O=C(Nc1cnc(N2CCN(CC(F)(F)F)CC2)c(Cl)c1)Nc1c[nH]c2ccc(Cl)cc12 [Compound 126, 1-(5-chloro-1H-indol-3-yl)-3-(5-chloro-6-(4-(2,2,2-trifluoroethyl)piperazin-1-yl)pyridin-3-yl)urea]
- EC50: 40 to 200 nM

SMILES: O=C(Nc1cnc(N2CCC(F)(F)CC2)c(Cl)c1)Nc1c[nH]c2ccccc12 [Compound 206, 1-(5-chloro-6-(4,4-difluoropiperidin-1-yl)pyridin-3-yl)-3-(1H-indol-3-yl)urea]
- EC50: 40 to 200 nM

SMILES: O=C(Nc1cnc(C2CC(F)(F)C2)c(Cl)c1)Nc1c[nH]c2ccc(Cl)cc12 [Compound 144, 1-(5-chloro-1H-indol-3-yl)-3-(5-chloro-6-(3,3-difluorocyclobutyl)pyridin-3-yl)urea]
- EC50: 40 to 200 nM

SMILES: O=C(Nc1cnc(N2CCN(CC(F)(F)F)CC2)c(F)c1)Nc1c[nH]c2ccccc12 [Compound 278, 1-(5-fluoro-6-(4-(2,2,2-trifluoroethyl)piperazin-1-yl)pyridin-3-yl)-3-(1H-indol-3-yl)urea]
- EC50: 200 to 1000 nM

SMILES: O=C(Nc1cnc(N2CCC(F)(F)CC2)nc1)Nc1c[nH]c2ccccc12 [Compound 178, 1-(2-(4,4-difluoropiperidin-1-yl)pyrimidin-5-yl)-3-(1H-indol-3-yl)urea]
- EC50: 1000 to 5000 nM

SMILES: CC1(C)CN(c2ncc(NC(=O)Nc3c[nH]c4ccc(Cl)cc34)cc2Cl)CCO1 [Compound 298, 1-(5-chloro-1H-indol-3-yl)-3-(5-chloro-6-(2,2-dimethylmorpholino)pyridin-3-yl)urea]
- EC50: 40 to 200 nM

SMILES: Cc1cc(NC(=O)Nc2c[nH]c3ccc(Br)cc23)cnc1N1CCC(F)(F)CC1 [Compound 184, 1-(5-bromo-1H-indol-3-yl)-3-(6-(4,4-difluoropiperidin-1-yl)-5-methylpyridin-3-yl)urea]
- EC50: 40 to 200 nM

SMILES: CS(=O)(=O)c1ccc2[nH]cc(NC(=O)Nc3cnc(N4CCC(F)(F)CC4)c(Cl)c3)c2c1 [Compound 171, 1-(5-chloro-6-(4,4-difluoropiperidin-1-yl)pyridin-3-yl)-3-(5-(methylsulfonyl)-1H-indol-3-yl)urea]
- EC50: 5000 to 100000 nM

SMILES: Cc1cc(NC(=O)Nc2c[nH]c3cc(F)c(F)cc23)cnc1N1CCO[C@@H](C)C1 [Compound 151, (S)-1-(5,6-difluoro-1H-indol-3-yl)-3-(5-methyl-6-(2-methylmorpholino)pyridin-3-yl)urea]
- EC50: 200 to 1000 nM

SMILES: O=C(Nc1ccc(C2CCC2)cc1)Nc1c[nH]c2ccc(Cl)cc12 [Compound 300, 1-(5-chloro-1H-indol-3-yl)-3-(4-cyclobutylphenyl)urea]
- EC50: 40 to 200 nM

SMILES: CO[C@H]1CCCN(c2ncc(NC(=O)Nc3c[nH]c4cc(F)c(F)cc34)cc2Cl)C1 [Compound 148, (S)-1-(5-chloro-6-(3-methoxypiperidin-1-yl)pyridin-3-yl)-3-(5,6-difluoro-1H-indol-3-yl)urea]
- EC50: 40 to 200 nM

SMILES: O=C(Nc1cnc(N2CCC3(CC2)CC3)c(F)c1)Nc1c[nH]c2ccc(Cl)cc12 [Compound 240, 1-(5-chloro-1H-indol-3-yl)-3-(5-fluoro-6-(6-azaspiro[2.5]octan-6-yl)pyridin-3-yl)urea]
- EC50: 40 to 200 nM

SMILES: N#Cc1cc(NC(=O)Nc2c[nH]c3cc(F)c(F)cc23)cnc1C1CC(F)(F)C1 [Compound 125, 1-(5-cyano-6-(3,3-difluorocyclobutyl)pyridin-3-yl)-3-(5,6-difluoro-1H-indol-3-yl)urea]
- EC50: 200 to 1000 nM

SMILES: O=C(Nc1cnc(C2CCC(F)(F)CC2)c(F)c1)Nc1c[nH]c2ccc(Cl)cc12 [Compound 295, 1-(5-chloro-1H-indol-3-yl)-3-(6-(4,4-difluorocyclohexyl)-5-fluoropyridin-3-yl)urea]
- EC50: 40 to 200 nM

SMILES: C[C@H]1CN(c2ncc(NC(=O)Nc3c[nH]c4ccc(Cl)cc34)cc2Cl)C[C@H](C)N1 [Compound 289, 1-(5-chloro-1H-indol-3-yl)-3-(5-chloro-6-((3S,5S)-3,5-dimethylpiperazin-1-yl)pyridin-3-yl)urea]
- EC50: 5000 to 100000 nM

SMILES: O=C(Nc1cn(C2CCC(F)(F)CC2)cn1)Nc1c[nH]c2ccc(Cl)cc12 [Compound 212, 3-(5-chloro-1H-indol-3-yl)-1-[1-(4,4-difluorocyclohexyl)imidazol-4-yl]urea]
- EC50: 1000 to 5000 nM

SMILES: CC(CC1CCC1)n1cc(NC(=O)Nc2c[nH]c3ccc(Cl)cc23)cn1 (centres unmarked) [Compound 217, 1-(5-chloro-1H-indol-3-yl)-3-(1-(1-cyclobutylpropan-2-yl)-1H-pyrazol-4-yl)urea]
- EC50: 200 to 1000 nM

SMILES: O=C(Nc1cnc(N2CCC(F)(F)CC2)c(F)c1)Nc1c[nH]c2ccc(Cl)cc12 [Compound 292, 1-(5-chloro-1H-indol-3-yl)-3-(6-(4,4-difluoropiperidin-1-yl)-5-fluoropyridin-3-yl)urea]
- EC50: 40 to 200 nM

SMILES: O=C(Nc1cnc(N2CCC(F)(F)CC2)cn1)Nc1c[nH]c2ccc(Cl)cc12 [Compound 189, 1-(5-chloro-1H-indol-3-yl)-3-(5-(4,4-difluoropiperidin-1-yl)pyrazin-2-yl)urea]
- EC50: 40 to 200 nM

SMILES: O=C(Nc1cnc(N2CCC(F)(F)CC2)c(CCO)c1)Nc1c[nH]c2ccc(Cl)cc12 [Compound 127, 1-(5-chloro-1H-indol-3-yl)-3-(6-(4,4-difluoropiperidin-1-yl)-5-(2-hydroxyethyl)pyridin-3-yl)urea]
- EC50: 200 to 1000 nM

SMILES: O=C(Nc1ccnc(C2CCN(CC(F)(F)F)CC2)c1)Nc1c[nH]c2cc(F)c(F)cc12 [Compound 213, 1-(5,6-difluoro-1H-indol-3-yl)-3-(2-(1-(2,2,2-trifluoroethyl)piperidin-4-yl)pyridin-4-yl)urea]
- EC50: 1000 to 5000 nM
